Consider 9 compounds from US20250326771A1, “PIPERAZINE DERIVATIVES USEFUL IN HIV THERAPY” (VIIV HEALTHCARE COMPANY, priority 2022, published 2025).

For orientation: IC50 means the concentration that gives 50% inhibition.

The test system of assay [1] is Jurkat HIV-luciferase clones. As to the kind of experiment: Jurkat latency reversal assay. It counts as cell-based. The note with it: Homo sapiens, 48 h; Jurkat latency reversal assay potency; read-out: Jurkat pEC50 (converted). As for the experimental part: Jurkat HIV-luciferase clones were maintained in RPMI medium 1640 (Gibco by Life Technologies) containing 10% (vol/vol) fetal bovine serum (SAFC/Sigma-Aldrich) and 25 units/mL penicillin, 25 units/mL streptomycin (Gibco by Life Technologies), and were split 1:4 every 3 to 4 days to maintain a cell density of ˜0.3 to 1 million cells/mL. The Jurkat clones were maintained with the addition of 500 nM EFV in the medium. Three Jurkat cell clones (C16, 115, and N6), each harboring one or two integrated HIV proviruses expressing the luciferase reporter gene, were added at equal amounts for a total of 5,000 cells per well to 384-well plates containing compound titrations. Dose-response testing was performed on compounds dissolved in dimethyl sulfoxide (DMSO; Fisher Scientific, Merelbeke, Belgium) dispensed in duplicate serial 3-fold, 14-point titrations using a D300e Digital Droplet Dispenser (Hewlett-Packard) to give final assay concentrations of 10 μM to […] in 50 μL of medium at 0.5% DMSO (vol/vol) final concentration. Cells and compound were incubated at 37° C. for 48 hours, unless otherwise indicated, followed by the addition of 20 μL of Steady-Glo® Luciferase (Promega). Luminescence resulting from the induction of the virally expressed luciferase was measured using an EnVision 2102 Multilabel Plate Reader (Perkin Elmer). Dose-response relationships were analyzed with GraphPad PRISM 6 using a four-parameter logistic regression model to calculate the concentration of compound that gives half-maximal response (EC50) and the maximal percent activation compared to the vehicle control.

The target in the next assay is XIAP-BIR3 (Homo sapiens (Human), UniProt P98170). As to the kind of experiment: BIR binding assay (FRET competition), XIAP BIR3. As for the experimental part: (§1) The BIR domain binding assays are FRET based competition assays that utilize His-tagged versions of each of the BIR2 and BIR3 domains from cIAP1, cIAP2, and XIAP (each domain assayed separately) each at a custom optimal concentration and a probe, 200 nM SMAC/DIABLO peptide […] labelled with AlexaFluor647 (part #crb 1110326h, Discovery Peptides). The assay is conducted in 50 mM HEPES, […], 1 mM CHAPS, 5% Glycerol, 1 mM DTT, in dI water with a final pH of 7.4 and final volume of 20 uL. Final protein domain concentrations are: 50 nM cIAP1-BIR3 (Part #APT-11-370 Reaction Biology), 100 nM XIAP-BIR3 (Part #APT-11-351 Reaction Biology), 200 nM XIAP-BIR2 (Part #APT-11-470 Reaction Biology), 325 nM cIAP2-BIR2 (Part #APT-11-489 Reaction Biology), 50 nM cIAP2-BIR3 (Part #APT-11-372 Reaction Biology), 325 nM cIAP1-BIR2 (Part #APT-11-487 Reaction Biology). Compounds were plated using a HP Tecan D300 printer in a final total volume of 202 nl and DMSO concentration normalized across the 15-point, 3-fold dilution series. Peptide and probe were prepared at 2× relative to the concentrations above in binding buffer, 10 uL added to the prepared compound plates, and incubated for 60 minutes. LANCE Eu-W1024 (part #AD0401 Perkin Elmer #, vendor) was prepared at 2× concentration in binding buffer for final concentration of 2 nM, 10 uL added to each well, and plates incubated for 30 minutes. Plates were read on an ENVISION multifunction plate reader with […] laser excitation to obtain the 615 nm/665 nm emission ratio as indicative of probe:protein proximity. Data was analyzed using GraphPad PRISM and curves fit using log(inhibitor) vs. response—Variable slope (four […] method to obtain IC50 and pIC50 values.
Sequence of XIAP-BIR3 (P98170 241-356): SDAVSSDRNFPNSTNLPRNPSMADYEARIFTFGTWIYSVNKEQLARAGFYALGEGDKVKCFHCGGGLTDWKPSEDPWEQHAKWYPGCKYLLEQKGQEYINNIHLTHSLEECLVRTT

For another assay, the target named is cIAP2-BIR3 (Homo sapiens (Human), UniProt Q13489). As to the kind of experiment: BIR binding assay (FRET competition), cIAP2 BIR3. On the procedure: as §1
Sequence of cIAP2-BIR3 (Q13489 238-349): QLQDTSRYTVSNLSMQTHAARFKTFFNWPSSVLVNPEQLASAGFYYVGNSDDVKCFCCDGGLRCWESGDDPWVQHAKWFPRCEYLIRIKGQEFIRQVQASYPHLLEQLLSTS
A further assay has as its target cIAP1-BIR3 (Homo sapiens (Human), UniProt Q13490). In words: BIR binding assay (FRET competition), cIAP1 BIR3. On the procedure:
as §1

Sequence of cIAP1-BIR3 (Q13490 253-363): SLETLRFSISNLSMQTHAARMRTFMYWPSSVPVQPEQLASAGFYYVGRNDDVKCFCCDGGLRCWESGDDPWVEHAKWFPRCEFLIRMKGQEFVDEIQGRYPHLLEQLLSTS

On to `C[C@@H]1CN(CC(=O)N2CC(C)(C)c3[nH]c(=O)c(Cc4ccc(F)cc4)cc32)[C@@H](CN2CCO[C@H](COc3ccc(C(C)(C)c4cccc(C(C)(C)c5ccc(OC[C@@H]6CN(C[C@H]7CN[C@H](C)CN7CC(=O)N7CC(C)(C)c8[nH]c(=O)c(Cc9ccc(F)cc9)cc87)CCO6)cc5)c4)cc3)C2)CN1` (stereo in doubt) [Example 61, 1,1′-(2,2′-((3R,3′R,6R,6′R)-(((2S,2'S)-((((1,3-phenylenebis(propane-2,2-diyl))bis(4,1-phenylene))bis(oxy))bis(methylene))bis(morpholine-2,4-diyl))bis(methylene))bis(3-methylpiperazine-6,1-diyl))bis(acetyl))bis(6-(4-fluorobenzyl)-3,3-dimethyl-1,2,3,4-tetrahydro-5H-pyrrolo[3,2-b]pyridin-5-one)], for which the EC50 in assay [1] was 12.6 to 63.1 nM. Further, the IC50 at XIAP-BIR3, at cIAP2-BIR3 and at cIAP1-BIR3 was 31.6 to 501 nM throughout.
For the compound `COc1cc(Cl)ccc1Cc1cc2c([nH]c1=O)C(C)(C)CN2C(=O)CN1C[C@@H](C)NC[C@@H]1CN1CCO[C@H](C(=O)NCc2ccc(CNC(=O)[C@@H]3CN(C[C@H]4CN[C@H](C)CN4CC(=O)N4CC(C)(C)c5[nH]c(=O)c(Cc6ccc(Cl)cc6OC)cc54)CCO3)cc2)C1` [Compound 169, (2S,2′S)-N,N′-(1,4-phenylenebis(methylene)) bis(4-(((2R,5R)-1-(2-(6-(4-chloro-2-methoxybenzyl)-3,3-dimethyl-5-oxo-2,3,4,5-tetrahydro-1H-pyrrolo[3,2-b]pyridin-1-yl)-2-oxoethyl)-5-methylpiperazin-2-yl)methyl)morpholine-2-carboxamide)], the EC50 in assay [1] is 12.6 to 63.1 nM. Besides, the IC50 at XIAP-BIR3 lay in the range of 31.6 to 501 nM; at cIAP2-BIR3, 1.38 to 7.94 nM; at cIAP1-BIR3 it was 7.94 to 15.8 nM.
The corresponding values for `C[C@@H]1CN(CC(=O)N2CC(C)(C)c3[nH]c(=O)c(Cc4ccc(Cl)cc4Cl)cc32)[C@@H](CN2CCO[C@H](COc3cccc(OC[C@@H]4CN(C[C@H]5CN[C@H](C)CN5CC(=O)N5CC(C)(C)c6[nH]c(=O)c(Cc7ccc(Cl)cc7Cl)cc65)CCO4)c3)C2)CN1` [Compound 187] are 0.49 to 12.6 nM, 31.6 to 501 nM, 7.94 to 15.8 nM and 7.94 to 15.8 nM.
With `C[C@@H]1CN(CC(=O)N2CC(C)(C)c3[nH]c(=O)c(Cc4ccc(F)cc4)cc32)[C@@H](CN2CCN(S(=O)(=O)c3ccc(Oc4ccc(S(=O)(=O)N5CCN(C[C@H]6CN[C@H](C)CN6CC(=O)N6CC(C)(C)c7[nH]c(=O)c(Cc8ccc(F)cc8)cc76)[C@H](C)C5)cc4)cc3)C[C@H]2C)CN1` [Example 30, 2,2′-((3R,3′R,6R,6′R)-(((2R,2′R)-(oxybis(4,1-phenylenesulfonyl))bis(2-methylpiperazine-4,1-diyl))bis(methylene))bis(3-methylpiperazine-6,1-diyl))bis(1-(6-(4-fluorobenzyl)-3,3-dimethyl-5-oxo-2,3,4,5-tetrahydro-1H-pyrrolo[3,2-b]pyridin-1-yl)ethan-1-one)], the EC50 in assay [1] was 316 to 3310 nM. Further, the figures for the IC50 on XIAP-BIR3, at cIAP2-BIR3 and on cIAP1-BIR3 were 31.6 to 501 nM, 15.8 to 31.6 nM and 31.6 to 501 nM, respectively.
Turning to `C[C@@H]1CN(CC(=O)N2CC(C)(C)c3[nH]c(=O)c(Cc4ccc(F)cc4)cc32)[C@@H](CN2CCO[C@H](COc3ccc(-c4ccc(OC[C@@H]5CN(C[C@H]6CN[C@H](C)CN6CC(=O)N6CC(C)(C)c7[nH]c(=O)c(Cc8ccc(F)cc8)cc76)CCO5)cc4)cc3)C2)CN1` [Example 50, 1,1′-(2,2′-((3R,3′R,6R,6′R)-(((2S,2'S)—(([1,1′-biphenyl]-4,4′-diylbis(oxy))bis(methylene))bis(morpholine-2,4-diyl))bis(methylene))bis(3-methylpiperazine-6,1-diyl))bis(acetyl))bis(6-(4-fluorobenzyl)-3,3-dimethyl-1,2,3,4-tetrahydro-5H-pyrrolo[3,2-b]pyridin-5-one)], the EC50 in assay [1] was 0.49 to 12.6 nM. The IC50 at XIAP-BIR3, on cIAP2-BIR3 and at cIAP1-BIR3 was 1.38 to 7.94 nM each time.
As for `C[C@@H]1CN(CC(=O)N2CC(C)(C)c3[nH]c(=O)c(Cc4ccc(F)cc4)cc32)[C@@H](CN2CCO[C@H](COc3ccc(Cc4ccc(OC[C@@H]5CN(C[C@H]6CN[C@H](C)CN6CC(=O)N6CC(C)(C)c7[nH]c(=O)c(Cc8ccc(F)cc8)cc76)CCO5)cc4)cc3)C2)CN1` [Example 53, 1,1′-(2,2′-((3R,3′R,6R,6′R)-(((2S,2'S)-(((methylenebis(4,1-phenylene))bis(oxy))bis(methylene))bis(morpholine-2,4-diyl))bis(methylene))bis(3-methylpiperazine-6,1-diyl))bis(acetyl))bis(6-(4-fluorobenzyl)-3,3-dimethyl-1,2,3,4-tetrahydro-5H-pyrrolo[3,2-b]pyridin-5-one)], in assay [1], the EC50 was 12.6 to 63.1 nM. In addition, the 50% inhibitory concentration (IC50) on XIAP-BIR3, at cIAP2-BIR3 and on cIAP1-BIR3 was 31.6 to 501 nM throughout.
As for `C[C@@H]1CN(CC(=O)N2CC(C)(C)c3[nH]c(=O)c(Cc4ccc(F)cc4)cc32)[C@@H](CN2CCO[C@H](COc3ccc(C(=O)c4ccc(OC[C@@H]5CN(C[C@H]6CN[C@H](C)CN6CC(=O)N6CC(C)(C)c7[nH]c(=O)c(Cc8ccc(F)cc8)cc76)CCO5)cc4)cc3)C2)CN1` [Example 54, 1,1′-(2,2′-((3R,3′R,6R,6′R)-(((2S,2'S)-(((carbonylbis(4,1-phenylene))bis(oxy))bis(methylene))bis(morpholine-2,4-diyl))bis(methylene))bis(3-methylpiperazine-6,1-diyl))bis(acetyl))bis(6-(4-fluorobenzyl)-3,3-dimethyl-1,2,3,4-tetrahydro-5H-pyrrolo[3,2-b]pyridin-5-one)], in assay [1], the EC50 is 0.49 to 12.6 nM. Besides, the IC50 at XIAP-BIR3, at cIAP2-BIR3 and at cIAP1-BIR3 was 15.8 to 31.6 nM in each case.
For `C[C@@H]1CN(CC(=O)N2CC(C)(C)c3[nH]c(=O)c(Cc4ccc(F)cc4)cc32)[C@@H](CN2CCO[C@H](COc3ccc(C(C)(C)c4ccc(OC[C@@H]5CN(C[C@H]6CN[C@H](C)CN6CC(=O)N6CC(C)(C)c7[nH]c(=O)c(Cc8ccc(F)cc8)cc76)CCO5)cc4)cc3)C2)CN1` [Example 56, 1,1′-(2,2′-((3R,3′R,6R,6′R)-(((2S,2'S)-(((propane-2,2-diylbis(4,1-phenylene))bis(oxy))bis(methylene))bis(morpholine-2,4-diyl))bis(methylene))bis(3-methylpiperazine-6,1-diyl))bis(acetyl))bis(6-(4-fluorobenzyl)-3,3-dimethyl-1,2,3,4-tetrahydro-5H-pyrrolo[3,2-b]pyridin-5-one)], the EC50 in assay [1] was 12.6 to 63.1 nM. Moreover, the IC50 at XIAP-BIR3, at cIAP2-BIR3 and at cIAP1-BIR3 was 31.6 to 501 nM each time.
With `C[C@@H]1CN(CC(=O)N2CC(C)(C)c3[nH]c(=O)c(Cc4ccc(F)cc4)cc32)[C@@H](CN2CCC(CCCOc3cccc(OCCCC4CCN(C[C@H]5CN[C@H](C)CN5CC(=O)N5CC(C)(C)c6[nH]c(=O)c(Cc7ccc(F)cc7)cc65)CC4)c3)CC2)CN1` [Example 109, 1,1′-(2,2′-((3R,3′R,6R,6′R)-((((1,3-phenylenebis(oxy))bis(propane-3,1-diyl))bis(piperidine-4,1-diyl))bis(methylene))bis(3-methylpiperazine-6,1-diyl))bis(acetyl))bis(6-(4-fluorobenzyl)-3,3-dimethyl-1,2,3,4-tetrahydro-5H-pyrrolo[3,2-b]pyridin-5-one)], the EC50 in assay [1] is 12.6 to 63.1 nM. In addition, the IC50 was in the range of 7.94 to 15.8 nM on cIAP2-BIR3 and 15.8 to 31.6 nM at cIAP1-BIR3.
